According to patent US20230176038A1, “Methods for Identifying Modulators of Insect Transient Receptor Potential Channels” (BASF Corporation, priority 2019, published 2023):

Experiments:
[1] = tested on: Nanchung and Water witch (Nan + Wtrw) complexes; assay: Calcium mobilization (fluo-4, FLIPR) in CHO-K1 cells co-expressing Nanchung and Water witch; details: for Ca2+ mobilization response: CHO-K1 cells co-expressing Nanchung and Water witch
Excerpt: (§1) DNAs encoding for tagged TRP channels were delivered into CHO-K1 cells using adenoviruses. Adenovirus-mediated gene delivery allowed for expression of the gene of interest, optimize expression levels and stoichiometry of subunits, as well as prevention of possible toxic effects of insect TRP channels by maintaining virus-infected cells at room temperature.
(§2) To test the hypothesis that Water witch may also be involved in the action of PM and AP, Water witch was expressed in CHO-K1 cells either alone or in combination with Nanchung. Given that TRP channels are permeable for Ca2+, cell responces were measured by monitoring Ca2+ mobilization using Ca2+ sensitive fluorescent probe FLUO4.
(§3) Hamster CHO-K1 cells (ATCC ® CCL-61TM) were infected with adenoviruses expressing TRP channels individually or in combinations. The cells were kept overnight at 37° C., followed by 3 days at 25° C. The medium was changed two days after seeding. Calcium mobilization was detected using fluorescent calcium probe fluo-4AM (Life Technologies) and measured by FLIPR-TETRA instrument (Molecular Devices, Sunnyvale, CA). The cells were loaded with 50 µl of Hank’s buffered salt solution (HBSS) containing 4 µM fluo-4AM, 5 mM probenecid, 20 mM CaCl2, and 0.02% pluoronic for 2 hours at 25° C. The dye was then discarded, 50 µl of HBSS were added. The test compounds were dissolved in DMSO and added to the cells in 50 µl HBSS, yielding a final DMSO concentration of 0.2%. Fluorescence was monitored for 10 minutes at 1 second intervals at 470-495 nm/515-575 nm excitation/emission wavelengths. EC50 values were calculated using GraphPad Prism (GraphPad Software).

[2] = tested on: Nanchung and Inactive (Nan + Iav) complexes; assay: Calcium mobilization in CHO-K1 cells co-expressing Nanchung and Inactive; assay type: cell-based, Drosophila melanogaster
Nanchung (Nan) [3] = assay: Calcium mobilization in CHO-K1 cells expressing Nanchung alone; assay type: cell-based, Drosophila melanogaster; details: CHO-K1 cells expressing Nanchung individually
[4] = tested on: parental mammalian cells (CHO-K1); assay: Calcium mobilization in parental mammalian cells; assay type: cell-based, hamster; details: prior to infection
[5] = tested on: Inactive and Water witch (Iav + Wtrw); assay: Calcium mobilization in CHO-K1 cells co-expressing Inactive and Water witch; assay type: cell-based, Drosophila melanogaster
Water witch (Wtrw) = assay: Calcium mobilization in CHO-K1 cells expressing Water witch alone; details: CHO-K1 cells expressing Water witch individually
Excerpt: as §1, §2, §3

[6] = molecular target: complexes formed by Nanchung protein and Water witch protein (Nan + Wtrw) (Drosophila melanogaster, UniProt A0ACM8PYI9); assay: biochemical; assay type: binding; details: membranes from cells co-expressing Nanchung and Water witch
Sequence of complexes formed by Nanchung protein and Water witch protein (Nan + Wtrw) (Q9VHY7 entry or part of it): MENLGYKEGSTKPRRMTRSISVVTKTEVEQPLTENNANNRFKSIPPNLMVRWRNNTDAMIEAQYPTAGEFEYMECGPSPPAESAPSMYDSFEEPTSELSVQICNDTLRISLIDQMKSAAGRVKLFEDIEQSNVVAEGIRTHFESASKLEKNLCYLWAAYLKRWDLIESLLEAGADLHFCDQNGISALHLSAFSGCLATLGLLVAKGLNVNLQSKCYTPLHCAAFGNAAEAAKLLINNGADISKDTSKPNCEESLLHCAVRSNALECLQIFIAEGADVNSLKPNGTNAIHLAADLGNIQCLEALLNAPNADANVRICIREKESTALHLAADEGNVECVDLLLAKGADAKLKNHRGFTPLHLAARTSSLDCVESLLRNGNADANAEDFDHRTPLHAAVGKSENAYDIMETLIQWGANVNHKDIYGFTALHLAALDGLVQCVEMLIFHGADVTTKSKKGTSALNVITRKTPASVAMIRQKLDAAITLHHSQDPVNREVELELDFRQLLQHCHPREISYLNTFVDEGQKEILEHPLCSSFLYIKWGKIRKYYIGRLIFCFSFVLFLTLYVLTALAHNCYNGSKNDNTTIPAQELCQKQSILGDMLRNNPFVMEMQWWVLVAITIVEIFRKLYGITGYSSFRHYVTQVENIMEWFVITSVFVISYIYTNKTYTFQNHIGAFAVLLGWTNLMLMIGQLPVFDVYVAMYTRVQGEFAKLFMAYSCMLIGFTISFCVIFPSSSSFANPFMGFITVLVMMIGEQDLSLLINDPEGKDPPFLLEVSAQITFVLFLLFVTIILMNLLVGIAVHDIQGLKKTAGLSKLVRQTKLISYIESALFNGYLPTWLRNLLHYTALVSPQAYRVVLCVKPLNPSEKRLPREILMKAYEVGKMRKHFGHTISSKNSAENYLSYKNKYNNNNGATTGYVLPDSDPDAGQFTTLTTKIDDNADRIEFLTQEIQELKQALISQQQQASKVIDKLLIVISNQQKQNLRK
Sequence of complexes formed by Nanchung protein and Water witch protein (Nan + Wtrw) (A0ACM8PYI9 entry or part of it): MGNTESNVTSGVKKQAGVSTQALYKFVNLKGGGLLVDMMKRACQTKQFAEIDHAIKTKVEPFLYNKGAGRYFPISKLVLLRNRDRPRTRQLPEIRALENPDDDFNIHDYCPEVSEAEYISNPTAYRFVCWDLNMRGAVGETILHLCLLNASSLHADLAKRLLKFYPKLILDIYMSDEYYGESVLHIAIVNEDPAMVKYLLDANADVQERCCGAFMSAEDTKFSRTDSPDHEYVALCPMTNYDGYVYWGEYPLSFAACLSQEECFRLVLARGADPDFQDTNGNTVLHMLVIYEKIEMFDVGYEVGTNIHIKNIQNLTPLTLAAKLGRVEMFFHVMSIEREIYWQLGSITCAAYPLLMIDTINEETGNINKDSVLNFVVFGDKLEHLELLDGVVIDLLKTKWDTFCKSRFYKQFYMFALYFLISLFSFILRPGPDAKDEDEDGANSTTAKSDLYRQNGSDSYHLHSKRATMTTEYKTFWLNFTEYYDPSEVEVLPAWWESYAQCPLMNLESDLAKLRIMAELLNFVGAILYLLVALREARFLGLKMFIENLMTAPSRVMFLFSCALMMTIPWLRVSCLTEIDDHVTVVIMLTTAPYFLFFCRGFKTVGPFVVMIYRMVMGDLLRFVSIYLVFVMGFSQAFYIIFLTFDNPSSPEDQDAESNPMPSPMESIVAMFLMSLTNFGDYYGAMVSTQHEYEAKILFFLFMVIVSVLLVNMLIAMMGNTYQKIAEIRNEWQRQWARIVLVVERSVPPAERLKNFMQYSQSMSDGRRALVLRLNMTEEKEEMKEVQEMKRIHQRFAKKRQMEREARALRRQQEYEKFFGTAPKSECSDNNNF

[7] = tested on: complexes formed by Nanchung protein and Inactive protein; assay: [3H]-afidopyropen competition binding to membranes of cells co-expressing Nanchung and Inactive; set-up: species or system Drosophila melanogaster; details: membranes from cells co-expressing Nanchung and Inactive
Nanchung (Nan) [8] = details: previously shown; cited from earlier work

Row | Structure (SMILES) | Ca2+ mobilization response [1] | Ca2+ mobilization response [2] | Ca2+ mobilization response (Nanchung (Nan) [3]) | Ca2+ mobilization response [4] | Ca2+ mobilization response [5] | Ca2+ mobilization response (Water witch (Wtrw)) | Inhibition of binding of tritiated afidopyropen [6] | Potency and efficacy of activation, Nanchung:Inactive compared with Nanchung:Water witch complexes ([1]; dose response of calcium responses, FIG. 4B) | Inhibition of binding of tritiated afidopyropen [7] | Response of Nanchung alone to stimulation (Nanchung (Nan) [8])
1 | NC(=O)c1cnccc1C(F)(F)F [TFNA-AM, 4-trifluoronicotinamide] | without effect |  |  |  |  |  |  |  |  | 
2 | C=CCN=C=S [allyl isothiocyanate] | efficiently activated | not responsive | nor in cells expressing Nancung (Nan) | not in parental mammalian cells | activation of Ca2+ mobilization | efficiently activated |  |  |  | 
3 | O=CC=Cc1ccccc1 [cinnamaldehyde] | efficiently activated | not responsive | nor in cells expressing Nancung (Nan) | not in parental mammalian cells | activation of Ca2+ mobilization | efficiently activated |  |  |  | 
4 | N#CCNC(=O)c1cnccc1C(F)(F)F [flonicamid] | without effect |  |  |  |  |  |  |  |  | 
5 | NC(=O)c1cccnc1 [nicotinamide] | evoked Ca2+ response | evoked Ca2+ response |  | not in parental mammalian cells |  | not in the cells expressing these proteins individually | completely inhibited binding | nearly identical potency and efficacy | completely inhibited binding | 
6 | CC1=NNC(=O)N(/N=C/c2cccnc2)C1 [pymetrozine] | elicited calcium mobilization |  |  |  |  |  | completely inhibited binding |  | completely inhibited binding | does not respond
